Like-named read-outs stand apart in the source and are kept apart here.
Target: T1, dopamine D1 receptor (Rattus norvegicus, UniProt P18901)
T1 construct: homogenates from rat striatum; from tissue; host or cells: rat striatum homogenate
Assay: Binding to dopamine D1 receptor in homogenates from rat striatum

T1 sequence (P18901 whole entry): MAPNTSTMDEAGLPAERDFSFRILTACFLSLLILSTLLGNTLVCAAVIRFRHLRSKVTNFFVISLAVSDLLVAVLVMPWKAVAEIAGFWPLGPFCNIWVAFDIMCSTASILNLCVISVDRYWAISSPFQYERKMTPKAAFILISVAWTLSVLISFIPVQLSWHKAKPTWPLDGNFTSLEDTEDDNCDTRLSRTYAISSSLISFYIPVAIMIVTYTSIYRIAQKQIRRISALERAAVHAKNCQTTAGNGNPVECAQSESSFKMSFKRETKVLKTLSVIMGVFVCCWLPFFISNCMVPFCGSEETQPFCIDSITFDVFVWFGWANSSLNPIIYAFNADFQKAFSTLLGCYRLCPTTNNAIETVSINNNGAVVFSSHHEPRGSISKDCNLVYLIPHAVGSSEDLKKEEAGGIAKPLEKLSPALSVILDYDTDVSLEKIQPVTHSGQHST

IC50 (homogenates from rat striatum, read-out: IC50 (nM) Dopamine D1 receptor) [nM] | SMILES | IC50 [nM]
0.9 | CN1CCc2cc(Cl)c(O)cc2C(c2c(Cl)c(Cl)cc3c2OCC3)C1 (single isomer, unassigned; (+)) [Example 3, (+)8-Chloro-5-(5,6-dichloro-2,3-dihydrobenzofuran-7-yl)-7-hydroxy-3-methyl-2,3,4,5-tetrahydro-1H-3-benzazepine] | 
 | CN1CCc2cc(Cl)c(O)cc2C(c2cc(Br)cc3c2OCC3)C1 (single isomer, unassigned; (+)) [Example 1, (+) 8-Chloro-5-(5-bromo-2,3-dihydrobenzofuran-7-yl)-7-hydroxy-3-methyl-2,3,4,5-tetrahydro-1H-3-benzazepine] | 0.7

— patent EP0628039B1, “2,3,4,5-TETRAHYDRO-1H-3-BENZAZEPINES AND PHARMACEUTICALLY ACCEPTABLE ACID ADDITION SALTS THEREOF” (NOVO NORDISK A/S, priority 1992, dated 1993)
